This note sets out measurements from patent publication US20260265238A1, “COMPOUNDS AND PHARMACEUTICAL COMPOSITIONS THAT DEGRADE SWI/SNF-RELATED MATRIX-ASSOCIATED ACTIN-DEPENDENT REGULATOR OF CHROMATIN SUBFAMILY A” (Plexium, Inc., priority 2023, published 2026).

Each structure is given as a SMILES string. A value given as a limit tells only on which side of the number the result lay.

Assay [1] has as its target T1, SMARCA4-HiBiT HeLa cells (protein which is expressed from the SMARCA4 gene) (Homo sapiens, UniProt P51532).
T1 construct: protein which is expressed from the SMARCA2 and SMARCA4 genes; host or cells: HeLa (SMARCA4-HiBiT engineered line)
Put plainly: SMARCA4 degradation assay (HiBiT-fusion HeLa cell line, 24 h, luminescence). In kind it is cell-based. The procedure, abridged:
(§1)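 HeLa cells carrying HiBiT-tagged SMARCA2 or SMARCA4 were seeded at 8,000 cells/well, allowed to attach overnight at 37° C., then given compounds in a 10-point dilution series (typically 10 μM to 300 pM) for 24 hours at 37° C. Remaining tagged protein was read by HiBiT lytic luminescence, and DC50s came from dose-response curves.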

In assay [2] the target is T2, SMARCA2-HiBiT HeLa cells (protein which is expressed from the SMARCA2 gene) (Homo sapiens, UniProt P51531).
T2 construct: protein which is expressed from the SMARCA2 and SMARCA4 genes; host or cells: HeLa (SMARCA2-HiBiT engineered line)
Put plainly: SMARCA2 degradation assay (HiBiT-fusion HeLa cell line, 24 h, luminescence). In kind it is cell-based. The procedure, abridged: as §1

T1 sequence (P51532 whole entry): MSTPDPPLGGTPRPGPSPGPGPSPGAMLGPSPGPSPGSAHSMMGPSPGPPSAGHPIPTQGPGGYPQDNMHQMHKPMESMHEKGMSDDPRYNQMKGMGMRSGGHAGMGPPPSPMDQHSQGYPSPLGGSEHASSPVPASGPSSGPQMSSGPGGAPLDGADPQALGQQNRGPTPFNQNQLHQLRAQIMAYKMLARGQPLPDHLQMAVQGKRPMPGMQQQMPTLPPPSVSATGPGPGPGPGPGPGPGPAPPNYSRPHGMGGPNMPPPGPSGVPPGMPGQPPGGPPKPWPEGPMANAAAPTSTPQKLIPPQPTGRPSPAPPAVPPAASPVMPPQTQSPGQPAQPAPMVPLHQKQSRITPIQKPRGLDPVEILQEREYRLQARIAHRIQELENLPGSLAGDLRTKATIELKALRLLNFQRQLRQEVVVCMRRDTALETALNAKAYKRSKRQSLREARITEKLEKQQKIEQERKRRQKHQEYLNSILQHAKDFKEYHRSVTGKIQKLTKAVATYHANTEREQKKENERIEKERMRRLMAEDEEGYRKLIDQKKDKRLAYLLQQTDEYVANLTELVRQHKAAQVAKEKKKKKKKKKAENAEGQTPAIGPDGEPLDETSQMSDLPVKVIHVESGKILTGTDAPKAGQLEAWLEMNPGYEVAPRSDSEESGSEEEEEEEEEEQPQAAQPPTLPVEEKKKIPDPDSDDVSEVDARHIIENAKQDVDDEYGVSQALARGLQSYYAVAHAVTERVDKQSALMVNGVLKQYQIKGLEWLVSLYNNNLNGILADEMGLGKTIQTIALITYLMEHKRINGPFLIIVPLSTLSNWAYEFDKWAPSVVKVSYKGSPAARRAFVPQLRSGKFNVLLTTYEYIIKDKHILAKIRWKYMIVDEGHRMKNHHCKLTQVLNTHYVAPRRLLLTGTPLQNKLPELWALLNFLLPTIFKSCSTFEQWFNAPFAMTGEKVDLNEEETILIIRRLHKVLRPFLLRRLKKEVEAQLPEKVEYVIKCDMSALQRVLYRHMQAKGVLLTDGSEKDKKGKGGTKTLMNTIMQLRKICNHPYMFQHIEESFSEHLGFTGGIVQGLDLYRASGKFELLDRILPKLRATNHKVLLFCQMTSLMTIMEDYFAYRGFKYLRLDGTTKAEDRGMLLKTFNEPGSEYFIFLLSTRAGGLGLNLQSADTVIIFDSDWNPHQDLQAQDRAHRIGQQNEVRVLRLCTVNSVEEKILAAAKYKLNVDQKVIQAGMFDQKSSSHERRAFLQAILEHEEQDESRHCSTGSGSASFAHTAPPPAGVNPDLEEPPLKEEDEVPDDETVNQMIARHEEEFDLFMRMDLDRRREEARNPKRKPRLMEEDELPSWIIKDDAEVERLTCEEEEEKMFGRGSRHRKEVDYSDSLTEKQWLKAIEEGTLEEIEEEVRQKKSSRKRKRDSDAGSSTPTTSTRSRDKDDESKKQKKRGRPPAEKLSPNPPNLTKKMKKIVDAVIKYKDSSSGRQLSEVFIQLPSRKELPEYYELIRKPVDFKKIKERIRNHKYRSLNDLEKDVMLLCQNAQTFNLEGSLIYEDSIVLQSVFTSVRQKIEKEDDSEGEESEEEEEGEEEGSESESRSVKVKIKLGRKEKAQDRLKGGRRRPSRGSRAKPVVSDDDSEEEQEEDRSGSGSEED
T2 sequence (P51531 whole entry): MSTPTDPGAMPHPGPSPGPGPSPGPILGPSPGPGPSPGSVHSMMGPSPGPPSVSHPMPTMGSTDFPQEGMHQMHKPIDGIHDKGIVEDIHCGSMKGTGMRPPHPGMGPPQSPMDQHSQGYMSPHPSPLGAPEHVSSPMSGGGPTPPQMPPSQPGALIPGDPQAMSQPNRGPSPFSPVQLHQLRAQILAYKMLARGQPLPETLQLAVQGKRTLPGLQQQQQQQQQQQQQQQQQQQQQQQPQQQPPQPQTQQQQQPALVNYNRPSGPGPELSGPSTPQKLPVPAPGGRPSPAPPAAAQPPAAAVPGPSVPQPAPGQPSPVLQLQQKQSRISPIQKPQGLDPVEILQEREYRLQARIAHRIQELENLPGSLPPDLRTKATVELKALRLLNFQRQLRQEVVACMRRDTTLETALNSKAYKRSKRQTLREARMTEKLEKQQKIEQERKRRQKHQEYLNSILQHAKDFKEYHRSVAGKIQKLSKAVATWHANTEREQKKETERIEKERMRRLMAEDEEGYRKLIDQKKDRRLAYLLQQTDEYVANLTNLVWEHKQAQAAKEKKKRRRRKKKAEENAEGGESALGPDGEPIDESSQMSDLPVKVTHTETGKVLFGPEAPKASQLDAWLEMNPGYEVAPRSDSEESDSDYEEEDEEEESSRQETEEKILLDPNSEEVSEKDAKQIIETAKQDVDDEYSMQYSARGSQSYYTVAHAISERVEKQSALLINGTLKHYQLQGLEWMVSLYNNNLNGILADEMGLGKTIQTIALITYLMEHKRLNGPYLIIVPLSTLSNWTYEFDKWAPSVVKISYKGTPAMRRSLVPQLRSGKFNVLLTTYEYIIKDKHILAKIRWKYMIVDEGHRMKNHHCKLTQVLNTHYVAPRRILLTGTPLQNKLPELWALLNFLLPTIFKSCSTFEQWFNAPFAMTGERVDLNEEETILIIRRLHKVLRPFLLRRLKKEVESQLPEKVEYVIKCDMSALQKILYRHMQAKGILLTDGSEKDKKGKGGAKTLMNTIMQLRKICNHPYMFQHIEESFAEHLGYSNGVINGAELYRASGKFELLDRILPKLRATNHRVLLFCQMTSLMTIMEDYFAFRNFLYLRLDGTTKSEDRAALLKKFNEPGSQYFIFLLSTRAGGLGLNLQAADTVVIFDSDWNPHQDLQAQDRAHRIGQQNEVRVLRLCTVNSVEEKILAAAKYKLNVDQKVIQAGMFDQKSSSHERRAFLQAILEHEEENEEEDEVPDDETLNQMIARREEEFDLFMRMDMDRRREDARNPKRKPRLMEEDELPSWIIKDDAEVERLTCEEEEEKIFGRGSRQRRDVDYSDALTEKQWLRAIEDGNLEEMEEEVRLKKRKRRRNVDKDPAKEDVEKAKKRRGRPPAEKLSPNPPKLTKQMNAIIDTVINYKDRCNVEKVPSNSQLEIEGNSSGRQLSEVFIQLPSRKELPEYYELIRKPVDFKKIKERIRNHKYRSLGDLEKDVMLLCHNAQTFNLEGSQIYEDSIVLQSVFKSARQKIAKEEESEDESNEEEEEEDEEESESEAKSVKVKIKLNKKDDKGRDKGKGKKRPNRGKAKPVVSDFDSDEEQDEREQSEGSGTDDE

In assay [1], `C[C@@H]1CN(c2ccnc(C#CCNC(=O)c3cc4ncccn4n3)n2)C[C@@H](C)N1c1cc(-c2ccccc2O)nnc1N` [Compound P-82, N-(3-(4-((3R,5R)-4-(3-amino-6-(2-hydroxyphenyl)pyridazin-4-yl)-3,5-dimethylpiperazin-1-yl)pyrimidin-2-yl)prop-2-yn-1-yl)pyrazolo[1,5-a]pyrimidine-2-carboxamide] showed a half-maximal degradation concentration (DC50) of 500 to 5000 nM and an inhibition at 1 µM of less than 30%. Also, in assay [2], the DC50 was 500 to 5000 nM and the “SMARCA2 % Degradation @ 1 μM” value is recorded as “+ (+=<30%)”.
In assay [1], `COC/C=C/c1nccc(N2CCN(c3cc(-c4ccccc4O)nnc3N)CC[C@H]2C)n1` [Compound P-170, o-(5-{(R)-4-[2-(3-methoxy-1-propenyl)-4-pyrimidinyl]-5-methyl-1,4-diazepan-1-yl}-6-amino-3-pyridazinyl)phenol] showed a DC50 of 500 to 5000 nM and an inhibition at 1 µM of 30 to 70%. Also, in assay [2], the 50% degradation concentration (DC50) lay within 50 to 500 nM and the “SMARCA2 % Degradation @ 1 μM” value is reported as “++ (++=30-70%)”.
`Nc1nnc(-c2ccccc2O)cc1N1CCN(c2ccnc(C#CCNC(=O)c3cn4ccncc4n3)n2)CC1` [Compound P-60, N-(3-(4-(4-(3-amino-6-(2-hydroxyphenyl)pyridazin-4-yl)piperazin-1-yl)pyrimidin-2-yl)prop-2-yn-1-yl)imidazo[1,2-a]pyrazinc-2-carboxamidc]: in assay [1], the 50% degradation concentration (DC50) was 50 to 500 nM and the inhibition at 1 µM lay within 30 to 70%. In addition, in assay [2], the DC50 was 50 to 500 nM and the “SMARCA2 % Degradation @ 1 μM” value is “++ (++=30-70%)”.
In the case of `CC(C)(C)OC(=O)N1CCC[C@H]1C#Cc1nccc(N2CCCN(c3cc(-c4ccccc4O)nnc3N)CC2)n1` [Compound P-314, tert-butyl (S)-2-[2-(4-{4-[3-amino-6-(o-hydroxyphenyl)-4-pyridazinyl]-1,4-diazepan-1-yl}-2-pyrimidinyl)ethynyl]-1-pyrrolidinecarboxylate], in assay [1], the half-maximal degradation concentration (DC50) was 50 to 500 nM and the inhibition at 1 µM lay in the range of 30 to 70%. Moreover, the DC50 in assay [2] was 50 to 500 nM.
On to `CN(C)c1cc(N2CCCN(c3cc(-c4ccccc4O)nnc3N)CC2)nc(C#CCNC(=O)c2cc3ncccn3n2)n1` [Compound P-139, N-(3-(4-(4-(3-amino-6-(2-hydroxyphenyl)pyridazin-4-yl)-1,4-diazepan-1-yl)-6-(dimethylamino)pyrimidin-2-yl)prop-2-yn-1-yl)pyrazolo[1,5-a]pyrimidine-2-carboxamide], for which, in assay [1], the DC50 was 500 to 5000 nM and the inhibition at 1 µM was greater than 70%. In assay [2], the DC50 was 50 to 500 nM and the “SMARCA2 % Degradation @ 1 μM” value was “+++ (+++=>70%)”.
In assay [1], `Nc1nnc(-c2ccccc2O)cc1N1CC2CN(c3ccnc(C#CCNC(=O)c4cc5ncccn5n4)n3)C2C1` (stereo not shown) [Compound P-43, N-(3-(4-(3-(3-amino-6-(2-hydroxyphenyl)pyridazin-4-yl)-3,6-diazabicyclo[3.2.0]heptan-6-yl)pyrimidin-2-yl)prop-2-yn-1-yl)pyrazolo[1,5-a]pyrimidine-2-carboxamide] gave a DC50 of 50 to 500 nM and an inhibition at 1 µM of 30 to 70%. For the same compound, in assay [2], the DC50 fell in the range of 500 to 5000 nM and the “SMARCA2 % Degradation @ 1 μM” value is “++ (++=30-70%)”.
`Nc1nnc(-c2ccccc2O)cc1N1CCN(c2ccnc(C#CCNC(=O)c3ccc4ccccc4n3)n2)CC1` [Compound P-64, N-(3-(4-(4-(3-amino-6-(2-hydroxyphenyl)pyridazin-4-yl)piperazin-1-yl)pyrimidin-2-yl)prop-2-yn-1-yl)quinoline-2-carboxamide]: in assay [1], the 50% degradation concentration (DC50) lay in the range of 50 to 500 nM and the inhibition at 1 µM lay within 30 to 70%. For the same compound, in assay [2], the DC50 is 50 to 500 nM and the “SMARCA2 % Degradation @ 1 μM” value is on record as “++ (++=30-70%)”.
In assay [1], `C[C@@H]1CCN(c2cc(-c3ccccc3O)nnc2N)CCN1c1ccnc(C#CCN2CC3CCC(C2)O3)n1` [Compound P-183, o-{5-[(R)-5-methyl-4-(2-{3-(8-oxa-3-azabicyclo[3.2.1]oct-3-yl)-1-propynyl}-4-pyrimidinyl)-1,4-diazepan-1-yl]-6-amino-3-pyridazinyl}phenol] came in with a DC50 of 50 to 500 nM and an inhibition at 1 µM of 30 to 70%. In addition, in assay [2], the half-maximal degradation concentration (DC50) fell in the range of 50 to 500 nM and the “SMARCA2 % Degradation @ 1 μM” value was “+++ (+++=>70%)”.
In assay [1], `CC(C)(C)OC(=O)N1CCC(C#Cc2nccc(N3CCCN(c4cc(-c5ccccc5O)nnc4N)CC3)n2)CC1` [Compound P-351, tert-butyl 4-[2-(4-{4-[3-amino-6-(o-hydroxyphenyl)-4-pyridazinyl]-1,4-diazepan-1-yl}-2-pyrimidinyl)ethynyl]-1-piperidinecarboxylate] displayed a DC50 of 500 to 5000 nM and an inhibition at 1 µM of 30 to 70%. Besides, in assay [2], the DC50 was in the range of 500 to 5000 nM and the “SMARCA2 % Degradation @ 1 μM” value was “++ (++=30-70%)”.
With `CC1CN(c2ccnc(C#CCN)n2)CCCN1c1cc(-c2ccccc2O)nnc1N` (stereo not shown) [Compound P-40, 2-(6-amino-5-(4-(2-(3-aminoprop-1-yn-1-yl)pyrimidin-4-yl)-2-methyl-1,4-diazepan-1-yl)pyridazin-3-yl)phenol], in assay [1], the half-maximal degradation concentration (DC50) is 500 to 5000 nM and the inhibition at 1 µM was less than 30%. Further, in assay [2], the DC50 lay within 500 to 5000 nM and the “SMARCA2 % Degradation @ 1 μM” value is “+ (+=<30%)”.
In assay [1], `Nc1nnc(-c2ccccc2O)cc1N1CCCN(c2ccnc(C#CCN3CCCOCC3)n2)CC1` [Compound P-379, 0-[6-amino-5-(4-{2-[3-(1,4-oxazepan-4-yl)-1-propynyl]-4-pyrimidinyl}-1,4-diazepan-1-yl)-3-pyridazinyl]phenol] gave a DC50 of 50 to 500 nM and an inhibition at 1 µM of 30 to 70%. For the same compound, in assay [2], the half-maximal degradation concentration (DC50) lay within 50 to 500 nM and the “SMARCA2 % Degradation @ 1 μM” value is given as “+++ (+++=>70%)”.
For the compound `CC(C)(C)OC(=O)NCC#Cc1nccc(N2CC3CC(Oc4cc(-c5ccccc5O)nnc4N)CC3C2)n1` (stereo not shown) [Compound P-221, 4-(3-{2-[3-(tert-butoxycarbonylamino)-1-propynyl]-4-pyrimidinyl}-3-azabicyclo[3.3.0]oct-7-yloxy)-6-(o-hydroxyphenyl)-3-pyridazinamine], in assay [1], the 50% degradation concentration (DC50) lay in the range of 50 to 500 nM and the inhibition at 1 µM was greater than 70%. In assay [2], the DC50 lay within 50 to 500 nM and the “SMARCA2 % Degradation @ 1 μM” value was “+++ (+++=>70%)”.
In assay [1], `C[C@@H]1CCN(c2cc(-c3ccccc3O)nnc2N)CCN1c1ccnc(C#CCN2CC[C@@H](F)C2)n1` [Compound P-236, o-{5-[(R)-4-(2-{3-[(R)-3-fluoro-1-pyrrolidinyl]-1-propynyl}-4-pyrimidinyl)-5-methyl-1,4-diazepan-1-yl]-6-amino-3-pyridaziny1} phenol] gave a DC50 of less than 50 nM and an inhibition at 1 µM of less than 30%. Also, in assay [2], the DC50 was less than 50 nM and the “SMARCA2 % Degradation @ 1 μM” value is “++ (++=30-70%)”.
As for `CC(C)(C)OC(=O)N1CC(C#Cc2nccc(N3CCCN(c4cc(-c5ccccc5O)nnc4N)CC3)n2)C1` [Compound P-371, tert-butyl 3-[2-(4-{4-[3-amino-6-(o-hydroxyphenyl)-4-pyridaziny1]-1,4-diazepan-1-yl}-2-pyrimidinyl)ethynyl]-1-azetidinecarboxylate], in assay [1], the DC50 was in the range of 50 to 500 nM and the inhibition at 1 µM lay within 30 to 70%. In addition, in assay [2], the DC50 lay within 50 to 500 nM and the “SMARCA2 % Degradation @ 1 μM” value is listed as “+++ (+++=>70%)”.
